In PubChem BioAssay AID850 (SRMLSC, 2007):
The source made the active and inactive calls. No rule for the calls is given here.

Legend:
[1] = yeast lifespan-shortening chemical project counter-assay, dose-response inhibition of growth under permissive conditions (AID 850); settings: Saccharomyces cerevisiae growth inhibition, permissive control, measured here: maximum growth inhibition, stronger effect = higher value;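 also: growth read as optical density after one day of incubation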
[2] = system: Saccharomyces cerevisiae growth inhibition, permissive control; experiment: as above

SMILES | inhibition ([1]; at 50 µM) [%] | IC50 [2] | further results
CCOc1ccc(N/N=C(/C#N)C(N)=O)cc1 | 87.7 | 11 µM | –
CCOC(=O)c1cc([N+](=O)[O-])c([N+](=O)[O-])cc1NC(C)=O | – | < 0.098 µM | inhibition ([1]; at 12.5 µM): 99.6%
COc1ccccc1C(=O)NNC(=S)NC(=O)c1ccco1 | 29.3 | > 100 µM (inactive) | –
COc1ccc(C(=O)/C=C/N2CCCCC2)cc1OC | 91.2 | 29.4 µM | –
Cc1ccc(C(=O)CSC2=NC(N)=C(C#N)C3(CCCCC3)C2C(N)=O)cc1 (stereo unspecified) | – | > 100 µM (inactive) | inhibition ([1]; at 1.563 µM): 18.2%
Oc1c(N=Nc2ccccn2)ccc2ccccc12 | – | 11.5 µM | inhibition ([1]; at 25 µM): 98.2%
CCCCCCCCC/C(=N\O)c1ccccn1 | 101 | 5.48 µM | –
CCCCN=C(NNc1ccc(Br)cc1)C(=O)OCC | 97.9 | 5.51 µM | –
Cc1cccc(C(=O)CC(=O)c2cc(Cl)ccc2O)c1 | 52.9 | 35.8 µM | –
CCOC(=O)c1c(/N=C/c2cccc([N+](=O)[O-])c2O)sc(C)c1C | 58.5 | 30.7 µM | –
CCN1CCN(c2ncnc3c2sc(=S)n3-c2ccccc2)CC1 | – | > 100 µM (inactive) | inhibition ([1]; at 0.195 µM): 15.6%
O=C1CCN2C=Nc3cccc4ccc1c2c34 | – | > 100 µM (inactive) | inhibition ([1]; at 25 µM): 26%
COc1ccccc1OCCCc1c(C)n[nH]c1C | 100 | 5.76 µM | –
C/C(=N\Nc1nc2c(s1)CCCC2)c1ccccc1 | 99.1 | 28.2 µM | –
COc1ccc(C(=O)NC(=S)NNC(=O)c2cnccn2)cc1 | 71.2 | 14.2 µM | –
S=C(NCc1ccc(Cl)cc1Cl)NC1CCCCC1 | 22.8 | > 100 µM (inactive) | –
Cc1ccc(NN2C(=O)C=C(c3ccc(Cl)cc3)C2=O)cc1 | 98 | 9.53 µM | –
CC/C(C)=N/Nc1cccc([N+](=O)[O-])c1 | 98.4 | 4.11 µM | –
Clc1ccc(N/N=C/c2cccnc2)cc1 | – | 19 µM | inhibition ([1]; at 25 µM): 78.3%
CC(=O)Oc1ccc(N2C(=O)C3C(C2=O)C2(C)C=CC3(C)O2)cc1 (stereo unspecified) | – | > 100 µM (inactive) | inhibition ([1]; at 0.195 µM): 3.93%
COc1ccccc1NC(=O)Cc1noc(CSc2cccc[n+]2[O-])n1 | 97.7 | 21.9 µM | –

SMILES | inhibition ([1]; at 50 µM) [%] | IC50 [2] | further results
N#C/C(=C/c1cn(-c2ccccc2)nc1-c1cccc(OCc2ccc(F)cc2)c1)C(=O)NCCCn1ccnc1 | – | > 100 µM (inactive) | inhibition ([1]; at 0.391 µM): 4.5%
CCOc1ccc(/C=C/C(=O)c2cc(Br)ccc(=O)c2O)cc1 | 89.6 | 16.7 µM | –
COc1ccc(-c2nncnn2)cc1 | 99.8 | 7.1 µM | –
C/C(O)=c1/ccc2cccc3nc(C)nc1c23 | – | > 100 µM (inactive) | inhibition ([1]; at 25 µM): 24.2%
CCCc1ccc(Oc2cn[nH]c2-c2ccc(O)c(C)c2O)cc1 | – | 7.32 µM | inhibition ([1]; at 12.5 µM): 101%
CCCn1c(C(C)NC(C)=O)nc2ccccc21 (stereo unspecified) | – | > 100 µM (inactive) | inhibition ([1]; at 12.5 µM): 9.66%
O=C(OCn1ncc(Cl)c(Cl)c1=O)c1ccc(F)cc1 | 23 | > 100 µM (inactive) | –
COc1ccc2c(c1)[nH]c1c(Cl)ncnc12 | – | > 100 µM (inactive) | inhibition ([1]; at 0.195 µM): 21.3%
Oc1ccc(Cl)cc1Cc1cc(Cl)ccc1O | 99 | 25.8 µM | –
CC1(C)Cc2c(C#N)c(N)sc(=S)c2CO1 | – | > 100 µM (inactive) | inhibition ([1]; at 12.5 µM): 23.1%
c1cncc(-c2nnc(-c3cccnc3)nn2)c1 | 90.5 | 26.3 µM | –
Cc1ccc(/C=C/C(=O)c2ccccc(=O)c2O)cc1C | – | 4.5 µM | inhibition ([1]; at 25 µM): 98.9%
COc1ccc(CN2CN(C(C)C)CSC2=S)cc1 | 26.3 | > 100 µM (inactive) | –
COc1cc(/C=N/N(C)c2ccccc2)cc(Cl)c1O | – | > 100 µM (inactive) | inhibition ([1]; at 1.563 µM): 14.6%
COc1cc(OC)c(C2CC(=O)N3CN(C)CSC3=C2C#N)cc1OC (stereo unspecified) | – | > 100 µM (inactive) | inhibition ([1]; at 0.781 µM): 11%
O=C(Nc1nc(-c2ccccn2)cs1)c1ccc(Cl)s1 | – | 2.09 µM | inhibition ([1]; at 12.5 µM): 91.4%
COc1ccc(-c2cc(=O)n(-c3nc4ccccc4[nH]3)[nH]2)cc1 | 98.2 | 14.6 µM | –
CC1CCC2(CC1)NC(=S)N(c1ccccc1)N2 (stereo unspecified) | 97.5 | 14.1 µM | –
O=c1cc(-c2ccncc2)oc2ccccc12 | – | > 100 µM (inactive) | inhibition ([1]; at 3.125 µM): 20.9%
OCc1ccnc2c(O)cccc12 | 44.1 | 50.6 µM | –
Cc1ccc(OC(=S)Nc2ccc(O)cc2)cc1 | 99.6 | 16.3 µM | –

SMILES | inhibition ([1]; at 50 µM) [%] | IC50 [2] | further results
COc1ccc(CNC(=O)CSc2nnc(-c3ccc(NC(C)=O)cc3)n2C)cc1 | – | > 100 µM (inactive) | inhibition ([1]; at 3.125 µM): 26.8%
COc1ccc(S(=O)(=O)n2oc(=O)cc2-c2ccccc2)cc1OC | – | > 100 µM (inactive) | inhibition ([1]; at 1.563 µM): 9.27%
CN1CCc2cc3c(c4c2[C@H]1[C@H](O)c1ccccc1-4)OCO3 | 11.1 | > 100 µM (inactive) | –
COc1ccc(-c2[nH]ncc2-c2ccc(Cl)cc2)c(O)c1 | – | > 100 µM (inactive) | inhibition ([1]; at 0.781 µM): 14.4%
O=[N+]([O-])c1ccc(Cl)c(S(=O)(=O)N2CCCCCC2)c1 | 58.1 | 31.8 µM | –
Cc1ccc(C(=O)OCn2ncc(Cl)c(Cl)c2=O)cc1 | 85.2 | 36.4 µM | –
CCN1/C(=C/C=C/C=C/c2sc3ccccc3[n+]2CC)Sc2ccccc21 | – | 11.3 µM | inhibition ([1]; at 25 µM): 87.5%
Oc1c(I)cc(Cl)c2cccnc12 | 98 | 16.7 µM | –
Oc1ccc(COCc2ccccc2)c2cccnc12 | 99.4 | 6.07 µM | –
O=c1cc(C(F)(F)F)[nH]c2c(C(F)(F)F)cccc12 | 97.5 | 11.2 µM | –
Cc1ccc(S(=O)(=O)Nc2ccc(SC(F)F)cc2)c(C)c1 | – | > 100 µM (inactive) | inhibition ([1]; at 0.781 µM): 21.4%
Cc1ccc(-c2cc(-c3ccccc3C)[nH]n2)c(O)c1 | 89.4 | 22.2 µM | –
Cc1nnc(NC(=O)CSc2nnc(Cc3cccn3C)n2-c2ccccc2)s1 | – | > 100 µM (inactive) | inhibition ([1]; at 0.781 µM): 11.8%
O/N=C/c1ccc(OCc2ccccc2)c(Br)c1 | – | > 100 µM (inactive) | inhibition ([1]; at 0.781 µM): 11.2%
C=C(C)COc1ccc(-c2[nH]ncc2-c2ccc(Br)cc2)c(O)c1 | – | > 100 µM (inactive) | inhibition ([1]; at 25 µM): 15.9%
Cc1cc(O)c(/C=N/Nc2ccccc2)c(=O)o1 | 97.9 | 19.5 µM | –
CCCn1c(CNc2ccccc2O)nc2ccccc21 | 18.9 | > 100 µM (inactive) | –
CC1=NOC(=O)/C1=C/c1ccc(-c2ccc(Cl)cc2)o1 | – | 11 µM | inhibition ([1]; at 25 µM): 90.5%
O=C(Nc1nc(-c2ccccn2)cs1)C1COc2ccccc2O1 (stereo unspecified) | 95.2 | 11.6 µM | –
N#CC(c1cccc(Cl)c1)c1ccc2c(C(F)(F)F)cc(C(F)(F)F)nc2n1 (stereo unspecified) | 4.48 | > 100 µM (inactive) | –
Cc1ccc(/C(N)=N/OC(=O)c2ccc(Cl)cc2Cl)cc1 | 98.8 | 19.8 µM | –

SMILES | inhibition ([1]; at 50 µM) [%] | IC50 [2] | further results
Oc1ccc(-c2csc(-c3ccccc3)n2)cc1O | 99.8 | 21.9 µM | –
Oc1cc(-c2ccccc2)c2ccccc2c1 | 92.8 | 35.3 µM | –
CCC(C)N1CC23C=CC(O2)C(C(=O)OC)C3C1=O (stereo unspecified) | – | > 100 µM (inactive) | inhibition ([1]; at 0.098 µM): 10.6%
Cn1c(N2CCOCC2)c(/C=N/OC(=O)c2ccc(F)cc2)c2ccccc21 | 19.1 | > 100 µM (inactive) | –
O=C(/C(=N/N=C/c1ccc(O)c(O)c1O)c1ccccc1)c1ccccc1 | – | > 100 µM (inactive) | inhibition ([1]; at 0.781 µM): 5.74%
Clc1ccc(COC(Cn2ccnc2)c2ccc(Cl)cc2Cl)cc1 (stereo unspecified) | 100 | 0.705 µM | –
O=C(Oc1c(Cl)cc(Cl)c2cccnc12)c1cccs1 | – | 12.7 µM | inhibition [1]: 100%
CC(N=Cc1cccc(O)c1O)c1ccccc1 (stereo unspecified) | 98 | 9.56 µM | –
CCN(CC)S(=O)(=O)c1ccc(NC(=O)CSc2cccc[n+]2[O-])cc1 | 90.1 | 31.6 µM | –
COc1cccc(CC(=O)Nc2ccc3nc(C)sc3c2)c1 | 96.5 | 16 µM | –
O=C(Oc1c(Cl)cc(Cl)c2cccnc12)c1cccc([N+](=O)[O-])c1 | – | 1.44 µM | inhibition ([1]; at 12.5 µM): 99.4%
O=C1C2C3C=CC(CO)(O3)C2C(=O)N1c1ccccc1-c1ccccc1 (stereo unspecified) | – | > 100 µM (inactive) | inhibition ([1]; at 6.25 µM): 19.9%
O=C(O)c1cc2c(s1)-c1ccccc1OC2 | – | > 100 µM (inactive) | inhibition ([1]; at 0.195 µM): 15.9%
Cc1ccccc1C(=O)O/N=C/c1c(N2CCOCC2)n(C)c2ccccc12 | 57.1 | 50.7 µM | –
CCOCC(=O)Nc1nc2c(s1)C(=O)CC(C)(C)C2 | 1.4 | > 100 µM (inactive) | –
CCc1oc2ccccc2c1C(=O)c1cc(Br)c(O)c(Br)c1 | 87.7 | 36.1 µM | –
COC(=O)c1ccc(C(=O)OC)c(NC(=O)CSc2cccc[n+]2[O-])c1 | – | 1.09 µM | inhibition [1]: 100%
O=C(O)c1ccccc1C(=O)NNc1ccc(Cl)cc1 | 96.5 | 7.11 µM | –
CSC1=NSC2=NC(=O)/C(=C/c3coc4ccccc4c3=O)C(=N)N12 | 28.3 | > 100 µM (inactive) | –
NC(=O)c1ccc(N=Cc2ccc([N+](=O)[O-])s2)cc1 | 101 | 11 µM | –
